Assays:
Test in all cases: Dundee protein kinase screen
Assay type in all cases: biochemical
Aurora A = molecular target: T1, Aurora A (Homo sapiens, UniProt O14965); details: read-out: %Remaining activity at 1µM NU6300
T1 sequence (O14965 1-403): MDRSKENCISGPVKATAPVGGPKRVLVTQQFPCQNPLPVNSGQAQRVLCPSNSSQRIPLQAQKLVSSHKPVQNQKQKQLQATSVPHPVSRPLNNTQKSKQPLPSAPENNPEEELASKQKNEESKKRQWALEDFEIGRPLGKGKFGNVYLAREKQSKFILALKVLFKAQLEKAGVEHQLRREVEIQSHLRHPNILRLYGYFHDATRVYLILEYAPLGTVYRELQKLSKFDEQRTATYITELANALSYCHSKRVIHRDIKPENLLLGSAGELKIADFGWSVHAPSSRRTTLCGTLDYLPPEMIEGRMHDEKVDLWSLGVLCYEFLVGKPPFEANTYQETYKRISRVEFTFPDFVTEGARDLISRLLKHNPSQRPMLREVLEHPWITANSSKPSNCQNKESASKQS
Experimental: (§1) Prior to determining its cellular activity, we carried out a screen to assess its selectivity against a panel of 131 protein kinases under conditions that would not distinguish between a reversible or irreversible mode of action. […] These 13 kinases and 29 additional kinases, selected for their known sensitivity to other inhibitors within the purine series, were then tested in a modified screening format in which the assay was repeated following a 4-hr pre-incubation (Table S3B). […] However, conformational flexibility around the active site may promote such an interaction with a residue from another part of the structure ([Martin et al., 2012]).
(§2) Table S3, Related to Figure 4. NCL-0006300 protein kinase selectivity. (A) NU6300 was tested at a single concentration of 1µM against 131 protein kinases present in a Dundee protein kinase screen (Bain et al., 2007). Values given are % activity remaining and are the average of duplicate measurements: 0-25% (red), 26-50% (yellow), 51-80% (black) and above 81% (green). The kinase domain sequences (as defined by UniProt) of […]
(§3) have a lysine residue at a position close to CDK2 Lys88 or Lys89. However, in the structure of tyrosine-protein kinase BTK (PDB ID: 3GEN) the residue equivalent to CDK2 Asp86 is Cys481 and therefore there is the potential for a covalent adduct to be formed through this side chain. […]

Aurora B = Aurora B (Homo sapiens, UniProt Q96GD4); details: read-out: %Remaining activity at 1µM NU6300
Experimental: as §1, §2, §3

CAMK1 = CAMK1 (Homo sapiens, UniProt Q14012); details: CAMK1, 1µM; read-out: %Remaining activity at 1µM NU6300
Experimental: as §1, §2, §3

CK1γ2 = CK1γ2 (Homo sapiens, UniProt P78368); details: CK1γ2, 1µM; read-out: %Remaining activity at 1µM NU6300
Experimental: as §1, §2, §3

DDR2 = DDR2 (Homo sapiens, UniProt Q16832); details: DDR2, 1µM; read-out: %Remaining activity at 1µM NU6300
Experimental: as §1, §2, §3

DYRK2 = DYRK2 (Homo sapiens, UniProt Q92630); details: DYRK2, 1µM; read-out: %Remaining activity at 1µM NU6300
Experimental: as §1, §2, §3

EF2K = EF2K (Homo sapiens, UniProt O00418); details: read-out: %Remaining activity at 1µM NU6300
Experimental: as §1, §2, §3

EPH-A2 = EPH-A2 (Homo sapiens, UniProt P29317); details: EPH-A2, 1µM; read-out: %Remaining activity at 1µM NU6300
Experimental: as §1, §2, §3

EPH-A4 = EPH-A4 (Homo sapiens, UniProt P54764); details: EPH-A4, 1µM; read-out: %Remaining activity at 1µM NU6300
Chain of EPH-A4 (P54764 20-986): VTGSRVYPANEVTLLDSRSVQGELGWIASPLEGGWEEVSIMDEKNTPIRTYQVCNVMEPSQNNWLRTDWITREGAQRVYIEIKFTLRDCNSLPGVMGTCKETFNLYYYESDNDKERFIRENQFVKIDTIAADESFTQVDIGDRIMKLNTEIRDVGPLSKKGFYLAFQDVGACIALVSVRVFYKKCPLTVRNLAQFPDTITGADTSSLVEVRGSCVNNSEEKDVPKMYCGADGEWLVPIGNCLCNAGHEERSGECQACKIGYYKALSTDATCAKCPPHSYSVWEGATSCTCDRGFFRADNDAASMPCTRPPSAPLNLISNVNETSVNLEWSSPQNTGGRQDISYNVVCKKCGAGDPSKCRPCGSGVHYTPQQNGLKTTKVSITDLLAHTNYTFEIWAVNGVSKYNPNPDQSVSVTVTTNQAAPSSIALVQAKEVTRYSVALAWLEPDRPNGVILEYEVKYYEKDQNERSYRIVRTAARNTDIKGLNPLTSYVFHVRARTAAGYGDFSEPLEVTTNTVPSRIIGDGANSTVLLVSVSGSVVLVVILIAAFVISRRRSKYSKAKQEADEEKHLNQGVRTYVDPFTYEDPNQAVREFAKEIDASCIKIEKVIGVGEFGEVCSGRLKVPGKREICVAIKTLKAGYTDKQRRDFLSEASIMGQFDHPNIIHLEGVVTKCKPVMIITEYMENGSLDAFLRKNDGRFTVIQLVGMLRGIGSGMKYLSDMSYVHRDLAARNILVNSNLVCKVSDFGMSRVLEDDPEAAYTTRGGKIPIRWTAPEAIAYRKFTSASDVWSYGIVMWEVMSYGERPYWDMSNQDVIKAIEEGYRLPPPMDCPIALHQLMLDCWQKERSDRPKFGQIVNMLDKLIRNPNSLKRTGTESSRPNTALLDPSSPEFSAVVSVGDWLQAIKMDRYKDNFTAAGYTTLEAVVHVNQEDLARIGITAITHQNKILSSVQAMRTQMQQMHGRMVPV
Experimental: as §1, §2, §3

ERK2 = ERK2 (Homo sapiens, UniProt P28482); details: ERK2, 1µM; read-out: %Remaining activity at 1µM NU6300
Experimental: as §1, §2, §3

GCK = GCK (Homo sapiens, UniProt Q12851); details: read-out: %Remaining activity at 1µM NU6300
Chain of GCK (Q12851 whole entry): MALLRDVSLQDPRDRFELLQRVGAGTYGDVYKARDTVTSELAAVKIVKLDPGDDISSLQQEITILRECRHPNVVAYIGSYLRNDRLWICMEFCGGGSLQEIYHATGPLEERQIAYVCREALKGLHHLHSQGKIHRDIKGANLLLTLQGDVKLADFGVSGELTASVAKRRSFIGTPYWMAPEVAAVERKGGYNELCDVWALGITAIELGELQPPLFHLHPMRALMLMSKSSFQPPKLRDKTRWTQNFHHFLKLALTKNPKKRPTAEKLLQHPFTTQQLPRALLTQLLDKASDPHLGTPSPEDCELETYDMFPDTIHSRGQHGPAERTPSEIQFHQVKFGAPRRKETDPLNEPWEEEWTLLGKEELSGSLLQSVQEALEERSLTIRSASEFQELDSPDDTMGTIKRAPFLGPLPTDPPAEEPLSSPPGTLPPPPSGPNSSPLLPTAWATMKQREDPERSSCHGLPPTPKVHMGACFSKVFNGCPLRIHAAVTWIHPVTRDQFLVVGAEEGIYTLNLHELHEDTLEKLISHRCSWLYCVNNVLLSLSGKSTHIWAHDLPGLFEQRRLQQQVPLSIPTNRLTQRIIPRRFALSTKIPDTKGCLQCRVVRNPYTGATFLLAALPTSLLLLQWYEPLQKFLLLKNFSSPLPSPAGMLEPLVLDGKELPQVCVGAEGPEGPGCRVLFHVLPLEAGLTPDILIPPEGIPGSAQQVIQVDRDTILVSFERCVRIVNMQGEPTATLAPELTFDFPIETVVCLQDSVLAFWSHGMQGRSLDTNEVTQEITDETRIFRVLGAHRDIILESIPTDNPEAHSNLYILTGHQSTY
Experimental: as §1, §2, §3

IGF-1R = IGF-1R (Homo sapiens, UniProt P08069); details: read-out: %Remaining activity at 1µM NU6300
Experimental: as §1, §2, §3

IRAK4 = IRAK4 (Homo sapiens, UniProt Q9NWZ3); details: IRAK4, 1µM; read-out: %Remaining activity at 1µM NU6300
Chain of IRAK4 (Q9NWZ3 whole entry): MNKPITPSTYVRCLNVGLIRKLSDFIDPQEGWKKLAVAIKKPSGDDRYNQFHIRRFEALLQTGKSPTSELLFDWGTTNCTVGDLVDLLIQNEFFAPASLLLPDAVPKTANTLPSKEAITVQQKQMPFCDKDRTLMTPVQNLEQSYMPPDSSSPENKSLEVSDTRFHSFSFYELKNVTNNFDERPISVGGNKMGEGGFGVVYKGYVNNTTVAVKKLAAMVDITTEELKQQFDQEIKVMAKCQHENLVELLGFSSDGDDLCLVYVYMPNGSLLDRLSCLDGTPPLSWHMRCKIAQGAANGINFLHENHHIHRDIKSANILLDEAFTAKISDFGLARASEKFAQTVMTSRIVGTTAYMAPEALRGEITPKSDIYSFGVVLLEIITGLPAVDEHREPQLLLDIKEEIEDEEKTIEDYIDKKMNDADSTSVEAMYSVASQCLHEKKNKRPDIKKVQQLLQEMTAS
Experimental: as §1, §2, §3

JNK2 = JNK2 (Homo sapiens, UniProt P45984); details: JNK2, 1µM; read-out: %Remaining activity at 1µM NU6300
Chain of JNK2 (P45984 whole entry): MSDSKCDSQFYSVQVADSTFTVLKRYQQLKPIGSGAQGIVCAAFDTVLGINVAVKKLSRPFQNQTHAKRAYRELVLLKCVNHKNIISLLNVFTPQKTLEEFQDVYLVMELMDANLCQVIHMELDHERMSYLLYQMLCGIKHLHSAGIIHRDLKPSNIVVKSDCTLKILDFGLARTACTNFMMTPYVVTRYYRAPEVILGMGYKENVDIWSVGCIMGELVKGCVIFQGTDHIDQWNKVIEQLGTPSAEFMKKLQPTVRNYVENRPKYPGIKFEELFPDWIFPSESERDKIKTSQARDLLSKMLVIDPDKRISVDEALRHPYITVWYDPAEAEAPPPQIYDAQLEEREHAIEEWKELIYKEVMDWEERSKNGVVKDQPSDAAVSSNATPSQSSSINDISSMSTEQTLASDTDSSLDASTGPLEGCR
Experimental: as §1, §2, §3

JNK3 = JNK3 (Homo sapiens, UniProt P53779); details: JNK3, 1µM; read-out: %Remaining activity at 1µM NU6300
Chain of JNK3 (P53779 whole entry): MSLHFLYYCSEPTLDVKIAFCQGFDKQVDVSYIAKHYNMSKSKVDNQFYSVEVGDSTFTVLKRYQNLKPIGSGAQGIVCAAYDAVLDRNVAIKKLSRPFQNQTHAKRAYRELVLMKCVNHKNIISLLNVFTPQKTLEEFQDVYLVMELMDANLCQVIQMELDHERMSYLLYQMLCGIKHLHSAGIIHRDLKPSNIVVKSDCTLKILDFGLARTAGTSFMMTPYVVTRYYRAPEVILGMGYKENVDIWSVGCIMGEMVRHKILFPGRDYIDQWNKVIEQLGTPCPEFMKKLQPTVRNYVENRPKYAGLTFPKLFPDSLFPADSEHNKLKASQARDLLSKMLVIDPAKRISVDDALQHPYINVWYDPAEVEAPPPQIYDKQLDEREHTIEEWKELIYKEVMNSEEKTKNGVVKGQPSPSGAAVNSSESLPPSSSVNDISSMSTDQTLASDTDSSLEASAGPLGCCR
Experimental: as §1, §2, §3

Lck = Lck (Homo sapiens, UniProt P06239); details: read-out: %Remaining activity at 1µM NU6300
Experimental: as §1, §2, §3

MAPKAP-K3 = MAPKAP-K3 (Homo sapiens, UniProt Q16644); details: MAPKAP-K3, 1µM; read-out: %Remaining activity at 1µM NU6300
Chain of MAPKAP-K3 (Q16644 whole entry): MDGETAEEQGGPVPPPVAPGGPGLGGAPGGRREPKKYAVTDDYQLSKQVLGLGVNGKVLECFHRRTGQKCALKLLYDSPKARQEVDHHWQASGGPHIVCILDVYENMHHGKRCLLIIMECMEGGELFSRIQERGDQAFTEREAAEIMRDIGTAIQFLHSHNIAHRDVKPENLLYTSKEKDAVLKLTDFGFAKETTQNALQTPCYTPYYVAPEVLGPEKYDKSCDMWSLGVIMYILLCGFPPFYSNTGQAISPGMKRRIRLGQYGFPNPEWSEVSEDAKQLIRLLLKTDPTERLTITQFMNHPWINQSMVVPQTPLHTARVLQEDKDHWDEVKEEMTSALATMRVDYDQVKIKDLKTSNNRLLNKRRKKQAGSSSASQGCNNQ
Experimental: as §1, §2, §3

MARK1 = MARK1 (Homo sapiens, UniProt Q9P0L2); details: MARK1, 1µM; read-out: %Remaining activity at 1µM NU6300
Experimental: as §1, §2, §3

MARK2 = MARK2 (Homo sapiens, UniProt Q7KZI7); details: MARK2, 1µM; read-out: %Remaining activity at 1µM NU6300
Chain of MARK2 (Q7KZI7 whole entry): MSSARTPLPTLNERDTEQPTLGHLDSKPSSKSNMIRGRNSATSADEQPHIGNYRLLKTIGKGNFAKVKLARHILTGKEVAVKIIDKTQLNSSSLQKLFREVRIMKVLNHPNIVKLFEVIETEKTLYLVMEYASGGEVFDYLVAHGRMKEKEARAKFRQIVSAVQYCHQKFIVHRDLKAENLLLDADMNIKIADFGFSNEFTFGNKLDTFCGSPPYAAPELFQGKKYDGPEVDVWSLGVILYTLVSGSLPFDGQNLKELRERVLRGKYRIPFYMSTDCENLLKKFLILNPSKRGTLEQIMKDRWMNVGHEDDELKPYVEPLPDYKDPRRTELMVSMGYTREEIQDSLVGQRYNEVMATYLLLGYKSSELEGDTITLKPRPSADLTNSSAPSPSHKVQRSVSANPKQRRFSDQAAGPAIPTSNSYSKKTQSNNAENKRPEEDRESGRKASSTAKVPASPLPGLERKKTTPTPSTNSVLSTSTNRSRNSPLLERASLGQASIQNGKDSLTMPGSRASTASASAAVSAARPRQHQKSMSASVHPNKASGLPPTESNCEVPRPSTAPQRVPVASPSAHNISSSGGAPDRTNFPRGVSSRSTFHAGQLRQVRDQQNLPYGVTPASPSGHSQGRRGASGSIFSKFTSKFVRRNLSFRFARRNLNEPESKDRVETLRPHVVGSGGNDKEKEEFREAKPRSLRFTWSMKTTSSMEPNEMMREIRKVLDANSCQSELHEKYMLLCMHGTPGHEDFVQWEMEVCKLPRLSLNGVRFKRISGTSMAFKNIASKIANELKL
Experimental: as §1, §2, §3

MKK1 = MKK1 (Homo sapiens, UniProt Q02750); details: MKK1, 1µM; read-out: %Remaining activity at 1µM NU6300
Chain of MKK1 (Q02750 whole entry): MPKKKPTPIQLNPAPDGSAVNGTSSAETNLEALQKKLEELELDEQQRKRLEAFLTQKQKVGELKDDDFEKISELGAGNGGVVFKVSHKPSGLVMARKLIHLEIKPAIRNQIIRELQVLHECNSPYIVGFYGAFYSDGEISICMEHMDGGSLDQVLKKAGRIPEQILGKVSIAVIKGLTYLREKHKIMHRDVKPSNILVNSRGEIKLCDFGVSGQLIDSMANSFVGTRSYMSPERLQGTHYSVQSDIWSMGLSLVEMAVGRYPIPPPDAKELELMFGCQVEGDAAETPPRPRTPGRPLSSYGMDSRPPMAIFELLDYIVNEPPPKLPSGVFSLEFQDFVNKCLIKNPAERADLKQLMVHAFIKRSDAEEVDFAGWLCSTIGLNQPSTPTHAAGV
Experimental: as §1, §2, §3

Work on `C=CS(=O)(=O)c1ccc(Nc2nc(OCC3CCCCC3)c3nc[nH]c3n2)cc1` [NU6300, 6-(cyclohexylmethoxy)-N-(4-(vinylsulfonyl)phenyl)-9H-purin-2-amine] yielded a remaining activity at 1 µM (Aurora A) of 18%, a remaining activity at 1 µM (Aurora B) of 26% and a remaining activity at 1 µM (CAMK1) of 89%. It also gave a remaining activity at 1 µM (CK1γ2) of 79%, a remaining activity at 1 µM (DDR2) of 60% and a remaining activity at 1 µM (DYRK2) of 78%. For the same compound, the remaining activity at 1 µM (EF2K) was 69%, the remaining activity at 1 µM (EPH-A2) was 91% and the remaining activity at 1 µM (EPH-A4) was 69%. For the same compound, the remaining activity at 1 µM (ERK2) was 73%, the remaining activity at 1 µM (GCK) was 26% and the remaining activity at 1 µM (IGF-1R) was 79%. For the same compound, the remaining activity at 1 µM (IRAK4) was 78%, the remaining activity at 1 µM (JNK2) was 88% and the remaining activity at 1 µM (JNK3) was 37%. For the same compound, the remaining activity at 1 µM (Lck) was 42%, the remaining activity at 1 µM (MAPKAP-K3) was 88% and the remaining activity at 1 µM (MARK1) was 47%. For the same compound, the remaining activity at 1 µM (MARK2) was 69% and the remaining activity at 1 µM (MKK1) was 58%.
